Measured values taken from paper PMC4911353, “Pharmacologic Inhibition of Host Phosphodiesterase-4 Improves Isoniazid-Mediated Clearance of Mycobacterium tuberculosis” (Frontiers in Immunology, 2016).

Key:
Mtb = settings: mouse pulmonary TB model; cited from earlier work
[1] = system: Mycobacterium tuberculosis CDC1551; format: in vivo; settings: B6D2F1 mice, 50 mg/kg daily
lung granulomas = experiment: Histology and morphometric measurement of lung granulomas in Mtb-infected mice; format: in vivo
Experimental: Formalin-fixed lung tissues of Mtb-infected mice were paraffin-embedded, cut into […] sections, and stained with hematoxylin and eosin (H&E) or acid fast staining by Ziehl–Neelsen (ZN) method to visualize host cells and Mtb, respectively (IDEXX-RADIL Laboratories Inc., MO, USA) as described in Ref. ([11]). Stained sections were photographed in a Nikon Microphot-FX photomicrographic system and analyzed with NIS-Elements F3.0 software (Nikon Instruments Inc., NY, USA). Lung granuloma size was morphometrically measured using PathScan Enabler IV scanner (Meyer Instruments, Houston, TX, USA) and SigmaScan Pro software (Systat Software, Inc., CA, USA). Histopathologic analysis and morphometry were performed by an experienced pathologist blinded to the sample identity.

SMILES | Impact on antibiotic-mediated bacillary clearance (Mtb) | Change in lung CFUs from 84 to 112 days postinfection [1] | Lesion area (granuloma size) versus untreated mice (lung granulomas; 28 days postinfection) | Granuloma size versus untreated group (lung granulomas; 112 days postinfection)
COc1ccc(C2CNC(=O)C2)cc1OC1CCCC1 (centres unmarked) [rolipram] | no impact | – | – | –
NNC(=O)c1ccncc1 [INH, isoniazid] | – | no significant decline | significant differences | significant reduction
COc1ccc([C@]2(C#N)CC[C@@H](C(=O)O)CC2)cc1OC1CCCC1 [cilomilast] | no impact | – | – | –
